Earlier results as cited in patent US20220401449A1, “COMPOSITIONS PROVIDING SLOW RELEASE OF CAFFEINE AND BEVERAGES COMPRISING THE SAME” (priority 2021, published 2022).
Like-named read-outs stand apart in the source and are kept apart here.

## Cn1c(=O)c2c(ncn2C)n(C)c1=O [caffeine]
80° C.
  caffeine's saturation concentration in water: about 200 mg/ml
Room temperature
  caffeine's saturation concentration in water: about 16 mg/ml
